# In patent US7399608B2, “Microbial detection and quantification” (Kimberly-Clark Worldwide, Inc., priority 2003, dated 2008):
# What was measured:
# gram-positive bacteria = assay: Dye solution added to bacteria spot on SCOTT towel
# Procedure: A new potential for the Reichardt's dye-based bacterial indicator was realized through testing of liquid dye with bacteria on a substrate rather than substrate-bound dye coming into contact with liquid bacteria (Example 5). This experiment focused on determining how the dye solution responds to known concentrations of bacteria residing on a surface. 100 μl of 10^8 CFU/ml gram-positive bacteria was placed on a SCOTT® towel (FIG. 9A). To this spot was added a drop of the Reichardt's dye dissolved in acetonitrile (160 mg in 10 ml acetonitrile) (9B).
# For comparison, a spot of dye was dried onto the towel and the same amount of bacteria was added. […] Additional drops of the dye were added to the spot of bacteria (9C), and de-colorization continued until the fourth drop, at which point the purple color persisted (9D). Attempts to restore the dye color on the dye-coated SCOTT® towel by adding acetonitrile using a pipette were unsuccessful (9E).
# E. coli [1] = assay: Titration of substrate-bound microorganism with Reichardt's dye solution; parameters: species or system Escherichia coli; conditions: 160 mg in 10 ml acetonitrile, 10 μl aliquots; 100 μl of 10^7 CFU/ml on towel
# [2] = system: microbes on computer keyboard; assay: Indicator spray on computer keyboard
# Procedure: Reichardt's dye was dissolved in isopropanol (160 mg in 10 mL of isopropanol) and attached to an aerosol-based spray device. The keyboard was then sprayed with the indicator solution (10B).
# bacteria solution = assay: Lateral flow device; conditions: 5 weight percent dye in iso-propanol striped on nitrocellulose HF75
# Procedure: Millipore nitrocellulose HF75 membrane (from Millipore Corporation of Billerica, Mass., USA) was laminated onto a plastic supporting card (from Millipore Corp.) having a length of approximately 30 centimeters. On both the detection zone and control zone, a solution of 5 weight percent Reichardt's dye in iso-propanol was hand striped. The membrane was dried in a laboratory oven for 1 hour at a temperature of 37.5° C. After the membrane card was taken from the oven, a cellulosic wicking pad (Cat# CFSP203000 from Millipore Corp.) was attached to one end of the membrane closer to the control zone. The other end of the card, used to attach the sample pad, was cut off. The card was then sliced into 4 mm strips to form half sticks.
# Once the half sticks were prepared, a bacteria solution was applied to the end of the detection membrane. […] The control line color remained the same through out the test.
# E. coli [3] = assay: Dry sample testing on dye-coated towel; parameters: species or system Escherichia coli; conditions: dry colony rubbed onto pre-moistened dye coated SCOTT towel
# Procedure: A test using the Reichardt's dye coated paper towel with a “dry” bacteria sample, not in solution was carried out. A dry sample of a colony of E. coli bacteria lifted off an agar petri dish containing a series of growing cultures was used. This dry sample was then rubbed onto a pre-moistened dye coated SCOTT® paper towel. The area where the colony was placed and rubbed turned colorless within 1-5 seconds. This is a similar to how a wet wipe towel would be used and it performed well.
# E. coli [4] = assay: Towel coated with Reichardt's dye and TMB exposed to bacteria; parameters: species or system Escherichia coli; conditions: E. coli suspension drop-wise
# [5] = UV-Vis absorption spectra in different solvents; format: physicochemical
# Source text: Reichardt's dye was used without further purification. […] Solvents used were obtained from Aldrich Chemical and were HPLC grade. A Shimadzu UV-1601 UV-Visible Spectrophotometer (Shimadzu Corporation) was used to measure the longest wavelength peak absorption of the dyes in the range of 400 to 800 nm, dissolved in three different solvents, contained in quartz curvettes. The following table contains the results of the testing with the solvents on the left side and dyes across the top.
# Influenza A = assay: Virus detection with Reichardt's dye-coated stickers
# vaccinia = conditions: 50-microliter droplet, 3 minutes
# S. aureus = assay: Semi-quantification of bacterial contamination on dye-treated paper; parameters: species or system Staphylococcus aureus
# Procedure: The color differences at lower concentrations were less distinct, particularly for the brush-coated sheet. A blind study was then conducted. […] Concentrations of these three drops were unknown to two of the experiment participants. After approximately 2 minutes, the drops were removed and blotted. Using the control regions, the concentrations of each sample were each visually estimated by these two persons. Both persons correctly estimated the concentration of the first sample to be 10^6 CFU/mL. […] The persons, however, incorrectly estimated the third sample to be 10^3 CFU/mL. […] The present inventors believe, however, that the concentration of the chromogen and uniformity of the coating may be readily selected to achieve accurate results at such low concentrations.
# P. aeruginosa = assay: Quantification of bacterial contamination by Delta E (hand-held spectrophotometer); parameters: species or system Psuedomonas aeruginosa; conditions: label substrate, log CFU/ml (actual) 6
# Source text: More specifically, indicator strips coated with Reichardt's dye were exposed with decreasing amounts of the bacteria aliquots. A hand-held spectrophotometer was used to after application of each aliquot to determine “Delta E” value (calculated using L*, A*, and B* values) for each CFU/mL concentration. The results are set forth below in Table 4 (for paper) and Table 5 (for label). From the above, standard detection curves were generated as shown in FIGS. 5-7 for S. aureus, P. aeruginosa, and E. coli, respectively. As shown, each type of bacteria changed the color of the dye-treated substrate in a slightly different way, creating a unique standard curve. Thereafter, drops of unknown bacteria concentrations were placed on the stickers and a spectrophotometer was used to measure the “Delta E” of the resulting color. The numerical values obtained for each unknown sample set forth below in Tables 6-7. […] Although a few of the results were not completely accurate, the present inventors believe that improving the uniformity of the coating would further enhance detection accuracy.
# [6] = system: bacteria in aged chicken juice; assay: Dye solution dropped onto aged chicken juice on SCOTT paper towel (comparative examples); conditions: 100 mg suspended in 10 ml acetonitrile, dropped onto aged chicken juice on SCOTT paper towel
compound,measurement,setting,value
"[O-]c1c(-c2ccccc2)cc(-[n+]2c(-c3ccccc3)cc(-c3ccccc3)cc2-c2ccccc2)cc1-c1ccccc1 [Reichardt's dye, 2,6-diphenyl-4-(2,4,6-triphenylpyridinio)-phenolate]",de-colorization of dye solution added to bacteria spot,gram-positive bacteria; 160 mg in 10 ml acetonitrile dropped on 100 μl of 10^8 CFU/ml on SCOTT towel,immediately de-colorized
same,drop at which the purple color persisted,"gram-positive bacteria; 160 mg in 10 ml acetonitrile, 100 μl of 10^8 CFU/ml",fourth drop
same,time to de-colorize when bacteria are placed onto dye dried on towel,"gram-positive bacteria; dye spot dried on cellulosic towel, same amount of bacteria",several minutes
same,Amount of Dye Required for Persistent Color,E. coli [1],80 µL
same,de-colorization of spray on old computer keyboard,[2],rapid de-colorization of the dye in certain areas
same,color change in detection zone of lateral flow half stick,bacteria solution,a color change was noted in the detection zone
same,time to turn colorless,E. coli [3],1 to 5 s
same,time to decolorize to a white spot,E. coli [4],less than 10 seconds
same,perceived color of solution,[5]; Acetone,(bluish-green)
same,perceived color of solution,[5]; Acetonitrile,(Blue)
same,perceived color of solution,[5]; Methanol,(red)
same,de-colorization of sticker by undiluted virus,Influenza A,less than that observed for the other viruses
same,de-colorization of sticker by undiluted virus,vaccinia,less than that observed for the other viruses
same,"visually estimated concentration, blind study third sample","S. aureus; actual 10^4 CFU/mL, dip-coated sheet",10^3 CFU/mL
same,"visually estimated concentration, blind study second sample","S. aureus; actual 10^5 CFU/mL, brush-coated sheet",10^5 CFU/mL
same,"visually estimated concentration, blind study first sample","S. aureus; actual 10^6 CFU/mL, dip-coated sheet",10^6 CFU/mL
same,"Delta E, unknown sample",P. aeruginosa,4.1002
same,color change on aged chicken juice (control),[6],immediately decolorized
